Measurements published in paper PMC2834277 (Nature structural & molecular biology, 2010).

Tests used:
DmAgo2ΔQ [1] = biological target: T1, DmAgo2ΔQ (Drosophila melanogaster, UniProt Q9VUQ5); assay: filter binding, competition with […]-bantam miRNA; settings: PBS, 5 mM MgCl2, room temperature; 5'-end miRNA site; high concentrations
T1 sequence (Q9VUQ5 400-1214 limits assumed): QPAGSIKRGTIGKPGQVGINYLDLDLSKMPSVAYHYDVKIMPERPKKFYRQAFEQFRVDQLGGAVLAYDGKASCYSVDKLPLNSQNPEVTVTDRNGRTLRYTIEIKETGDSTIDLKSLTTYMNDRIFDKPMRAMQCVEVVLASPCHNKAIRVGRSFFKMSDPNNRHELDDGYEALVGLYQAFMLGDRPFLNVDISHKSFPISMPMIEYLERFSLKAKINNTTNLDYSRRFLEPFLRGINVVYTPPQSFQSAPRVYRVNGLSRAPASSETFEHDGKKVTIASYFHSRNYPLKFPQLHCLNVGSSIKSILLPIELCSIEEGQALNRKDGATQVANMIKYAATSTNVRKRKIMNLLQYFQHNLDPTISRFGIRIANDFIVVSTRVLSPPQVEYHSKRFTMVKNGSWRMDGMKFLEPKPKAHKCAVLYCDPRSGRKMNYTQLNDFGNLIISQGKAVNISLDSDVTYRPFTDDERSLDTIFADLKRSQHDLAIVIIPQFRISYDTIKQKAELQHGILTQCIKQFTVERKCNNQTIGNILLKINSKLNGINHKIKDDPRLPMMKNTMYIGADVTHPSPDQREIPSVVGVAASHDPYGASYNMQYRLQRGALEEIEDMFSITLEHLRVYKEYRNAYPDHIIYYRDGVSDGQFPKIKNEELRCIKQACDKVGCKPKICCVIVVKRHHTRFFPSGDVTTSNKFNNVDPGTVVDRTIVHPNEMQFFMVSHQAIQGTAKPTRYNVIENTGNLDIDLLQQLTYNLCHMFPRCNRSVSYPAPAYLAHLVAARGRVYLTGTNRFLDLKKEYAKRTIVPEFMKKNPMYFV

PurR-C [2] = biological target: T2, PurR-C (Escherichia coli, UniProt P0ACP7); assay: Sepharose resin pull-down, competition with free nucleotide; type: binding; settings: 500 uM nucleotide, PBS, 5 mM MgCl2, 4 C; data not shown
T2 sequence (P0ACP7 60-341 limits assumed): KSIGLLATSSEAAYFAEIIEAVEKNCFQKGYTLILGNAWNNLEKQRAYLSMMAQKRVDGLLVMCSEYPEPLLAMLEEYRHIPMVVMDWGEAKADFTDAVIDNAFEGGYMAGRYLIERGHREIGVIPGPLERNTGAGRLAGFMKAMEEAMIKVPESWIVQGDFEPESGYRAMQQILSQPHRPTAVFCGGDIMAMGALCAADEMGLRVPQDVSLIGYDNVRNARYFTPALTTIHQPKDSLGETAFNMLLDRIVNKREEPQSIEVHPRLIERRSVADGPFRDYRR

DmAgo2-MID [3] = biological target: T3, DmAgo2-MID (Drosophila melanogaster, UniProt Q9VUQ5); assay: m7GTP-Sepharose pull-down, competition with free nucleotide; type: binding; settings: 500 uM GTP, PBS, 5 mM MgCl2, 4 C; competitive
T3 sequence (Q9VUQ5 740-884 limits assumed): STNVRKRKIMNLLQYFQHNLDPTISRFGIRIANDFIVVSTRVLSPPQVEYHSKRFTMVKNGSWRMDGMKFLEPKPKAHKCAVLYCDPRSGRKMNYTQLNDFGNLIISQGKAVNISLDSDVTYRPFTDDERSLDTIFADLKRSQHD

DmAgo2ΔQ [4] = biological target: T1, DmAgo2ΔQ; assay: resin pull-down, GTP-Sepharose; type: binding; settings: ligand immobilised on Sepharose; competed by miRNA; PBS, MgCl2, 4 C
CeRde1 MID domain = biological target: T4, CeRde1 MID domain (Caenorhabditis elegans, UniProt G5EEH0); assay: resin pull-down, m7GTP-Sepharose; type: binding; settings: ligand immobilised on Sepharose; PBS, 5 mM MgCl2, 4 C
T4 sequence (G5EEH0 470-618 limits assumed): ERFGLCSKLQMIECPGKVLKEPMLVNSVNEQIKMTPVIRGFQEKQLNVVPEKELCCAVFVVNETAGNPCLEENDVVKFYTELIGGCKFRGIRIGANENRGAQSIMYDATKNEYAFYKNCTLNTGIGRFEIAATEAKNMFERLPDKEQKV

PurR-C [5] = biological target: T2, PurR-C; assay: resin pull-down, m7GTP-Sepharose; type: binding; settings: ligand immobilised on Sepharose; PBS, 5 mM MgCl2, 4 C
CeAlg1-MID = CeAlg1-MID (Caenorhabditis elegans, UniProt G5EGR6); assay: resin pull-down, m7GTP-Sepharose; type: binding; settings: ligand immobilised on Sepharose; PBS, 5 mM MgCl2, 4 C
DmeIF4E = biological target: T5, DmeIF4E (Drosophila melanogaster, UniProt P48598); assay: resin pull-down, m7GTP-Sepharose; type: binding; settings: ligand immobilised on Sepharose; PBS, 5 mM MgCl2, 4 C
T5 sequence (P48598 1-259): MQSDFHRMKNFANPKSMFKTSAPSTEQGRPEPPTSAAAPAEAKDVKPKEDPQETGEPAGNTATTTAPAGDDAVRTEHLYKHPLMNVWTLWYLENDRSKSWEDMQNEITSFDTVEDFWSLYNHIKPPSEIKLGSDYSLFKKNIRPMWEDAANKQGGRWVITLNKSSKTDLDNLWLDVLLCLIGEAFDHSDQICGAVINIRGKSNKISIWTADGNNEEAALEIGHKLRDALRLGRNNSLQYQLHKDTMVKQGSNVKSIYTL

DmAgo2-MID [6] = biological target: T3, DmAgo2-MID; assay: resin pull-down, m7GTP-Sepharose; type: binding; settings: ligand immobilised on Sepharose; PBS, 5 mM MgCl2, 4 C
DmAgo1-MID = DmAgo1-MID (Drosophila melanogaster, UniProt A1Z9J5); assay: resin pull-down, m7GTP-Sepharose; type: binding; settings: ligand immobilised on Sepharose; PBS, 5 mM MgCl2, 4 C
Sequence of DmAgo1-MID (A1Z9J5 538-665): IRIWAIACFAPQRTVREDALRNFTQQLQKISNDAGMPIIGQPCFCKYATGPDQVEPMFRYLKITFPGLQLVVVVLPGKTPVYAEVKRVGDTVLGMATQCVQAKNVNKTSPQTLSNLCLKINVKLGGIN

Sequence of CeAlg1-MID (G5EGR6 540-686 limits assumed): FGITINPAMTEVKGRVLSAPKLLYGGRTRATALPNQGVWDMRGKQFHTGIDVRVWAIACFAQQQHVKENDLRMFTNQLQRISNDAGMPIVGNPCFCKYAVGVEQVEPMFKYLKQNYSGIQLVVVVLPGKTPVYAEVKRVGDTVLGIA

SMILES: Nc1nc2c(ncn2[C@@H]2O[C@H](COP(=O)(O)O)[C@@H](O)[C@H]2O)c(=O)[nH]1 [GMP]
- filter binding, competition with 32P-bantam miRNA (DmAgo2ΔQ [1]): allosteric behavior was not observed for DmAgo2ΔQ, though GMP could compete at high concentrations

SMILES: Nc1nc2c(ncn2[C@@H]2O[C@H](COP(=O)(O)OP(=O)(O)OP(=O)(O)O)[C@@H](O)[C@H]2O)c(=O)[nH]1 [GTP]
- Sepharose resin pull-down, competition with free nucleotide (PurR-C [2]): PurR binding to each resin was easily competed by both GTP and m^7GpppG
- m7GTP-Sepharose pull-down, competition with free nucleotide (DmAgo2-MID [3]): DmAgo2-MID binding was also readily competed by GTP
- resin pull-down, GTP-Sepharose (DmAgo2ΔQ [4]): DmAgo2ΔQ binds poorly to m^7GTP, and better to GTP- and GMP-Sepharose

SMILES: C[n+]1cn([C@@H]2O[C@H](COP(=O)(O)OP(=O)(O)OP(=O)(O)OC[C@H]3O[C@@H](n4cnc5c(=O)[nH]c(N)nc54)[C@H](O)[C@@H]3O)[C@@H](O)[C@H]2O)c2nc(N)[nH]c(=O)c21 [m^7GpppG]
- Sepharose resin pull-down, competition with free nucleotide (PurR-C [2]): PurR binding to each resin was easily competed by both GTP and m^7GpppG

SMILES: C[n+]1cn([C@@H]2O[C@H](COP(=O)(O)OP(=O)(O)OP(=O)(O)O)[C@@H](O)[C@H]2O)c2nc(N)[nH]c(=O)c21 [m^7GTP]
- resin pull-down, m7GTP-Sepharose (CeRde1 MID domain): All of the MID domains [...] were able to bind to both resins
- resin pull-down, m7GTP-Sepharose (PurR-C [5]): as well as the ligand-binding domain of PurR, were able to bind to both resins
- resin pull-down, m7GTP-Sepharose (CeAlg1-MID): miRNA-related Argonautes (DmAgo1, CeAlg1) consistently bound more effectively to m^7GTP-Sepharose
- resin pull-down, m7GTP-Sepharose (DmeIF4E): the binding of DmeIF4E to m^7GTP-Sepharose was highly efficient
- resin pull-down, m7GTP-Sepharose (DmAgo2-MID [6]): All of the MID domains [...] were able to bind to both resins
- resin pull-down, m7GTP-Sepharose (DmAgo1-MID): miRNA-related Argonautes (DmAgo1, CeAlg1) consistently bound more effectively to m^7GTP-Sepharose
